Assays:
[1] = tested on: UC3 and T24 cells; assay: Incucyte caspase-3/7 apoptosis assay; format: cell-based, human; settings: red fluorescence over time
Protocol: UC3 and T24 cells were plated in 96-well plates at 3,500 cell/well and allowed to attach overnight. Increasing amounts of APX2009 or APX2014 were added to each well along with 1 μM of the caspase reagent (Caspase-3/7 Red, Essen Bioscience) and then the cells were allowed to recover for 2 hours prior to beginning imaging with the Incucyte system (Essen Bioscience). Each well was imaged for phase contrast as well as red fluorescence every 2 hours for 96 hours. The Incucyte software generated movies of the cells following treatment as well as real-time imaging data with red fluorescence normalized to the percent confluency of the well.
To assay for caspase-3/7 mediated apoptosis, the increase in red fluorescence was analyzed over time following the addition of APX2009 and APX2014.

[2] = target: redox function of Ape1/Ref-1 (Homo sapiens, UniProt P27695); assay: Selective inhibition of the redox function of Ape1/Ref-1
redox function of Ape1/Ref-1, sequence (P27695 whole entry): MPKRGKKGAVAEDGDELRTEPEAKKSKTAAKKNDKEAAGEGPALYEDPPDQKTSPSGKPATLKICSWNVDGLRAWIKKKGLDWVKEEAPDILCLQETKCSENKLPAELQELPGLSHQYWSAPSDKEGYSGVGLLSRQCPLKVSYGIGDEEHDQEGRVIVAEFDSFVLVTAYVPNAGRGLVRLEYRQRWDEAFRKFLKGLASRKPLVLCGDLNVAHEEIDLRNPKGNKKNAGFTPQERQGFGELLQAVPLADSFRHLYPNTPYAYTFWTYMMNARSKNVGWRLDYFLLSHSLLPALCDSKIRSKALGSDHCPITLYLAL

[3] = tested on: retinal vascular endothelial cells (RVEC); assay: MTS proliferation assay of retinal endothelial cells; format: cell-based, mouse
Protocol: Inhibition of endothelial cell proliferation. […] Young adult mouse retinal tissues were dissected out and digested. Cells were plated in 24 well plates and grown to confluence, then seeded to 96 well plates for assay. Three days after seeding, the total number of cells was assayed by MTS measurement (Promega). The proliferation rate was calculated according to manufacturer's instructions. Proliferations of RECs from different groups were compared for statistical significance. APX3330 (RN3-3) blocked REC proliferation indicative of anti-blood vessel formation effects. (FIG. 10)
APX3330 10-100 μM decreased cell proliferation of retinal vascular endothelial cells (RVEC) (FIG. 11). In basal media, APX3330 inhibited REVC cell proliferation at all 4 concentrations tested, 10 μM-57%, 25 μM-93% (p<0.01).

[4] = tested on: subretinal neovascularization (SNV) in vldlr-/- retina; assay: SNV in vldlr-/- knockout mice assay; format: in vivo; settings: single intravitreal injection, one week after treatment
Protocol: SNV in vldlr−/− knockout mice assay. […] Experiments were carried out in very-low-density lipoprotein receptor (vldr) knockout mice to determine the effect of APX3330 on inhibition of SNV development in the vldlr−/− mutant. Each animal received a single intravitreal injection of 1 μl volume of BSS as a vehicle control and the fellow eye received 1 μl of […] APX3330. The final concentration of APX3330 was equivalent to approximately 20 μM in the retina. Quantitative measurement of SNV was carried out one week after the treatment in the whole mount retina after lectin-FITC staining. […] The apparent increase of SNV after antibody injection could be due to foreign protein triggered immune response which has been reported before (Tator et al., 2008). APX3330 reduced the number of SNV at a statistically significant level (p<0.01 in paired t-test). […] The Ape1/Ref-1 inhibitor offers a new approach to control angiogenesis for advanced macular degeneration (AMD) treatment.

[5] = tested on: OVCAR-3 tumor cells; assay: MTS cell survival assay OVCAR-3; format: cell-based, human; settings: about 24 or 72 h
Protocol: Decreased cancer cell survival. MCF-7 or OVCAR-3 cells (about 2-4,000) were aliquoted into each well of a 96-well plate in triplicate and allowed to adhere overnight. APX3330 (RN3-3) was added to the cultures. After about 24 or 72 h, about 0.05 mg/mL 3-(4-5-Dimethylthiazol-2-yl)-5-(3-carboxymethoxyphenyl)-2-(4-sulfophenyl)-2H-tetrazolium salt (MTS) reagent was added to each well and incubated at about 37° C. for about 4 h followed by absorbance measurement at 490 nm. The values were standardized to wells containing media alone. […] Similar effects can be seen in multiple myeloma, prostate, non-small cell lung carcinoma, colon, and glioma derived cells.

[6] = tested on: multiple myeloma cells; assay: Phospho-histone H2AX western blot (DNA double stranded breaks); format: cell-based; settings: combination with melphalan
Protocol: APX3330 in combination with chemotherapeutic Melphalan. […] Synergistic plots made using CalcuSyn software. APX3330 was either given alone or in combination with melphalan. As an indicator of DNA double stranded breaks (DSBs), the phosphorylation of histone H2AX at Ser^139 was measured with a phosphorylation-specific H2AX antibody from Upstate Cell Signaling Solutions (Waltham, Md.). Cells were treated with melphalan alone or melphalan plus APX3330. After drug treatment, exponentially growing cells were harvested, washed in cold PBS, and lysed in about 100 μL RIPA assay buffer as described above. Protein was quantified and electrophoresed in SDS gel-loading buffer on a 12% SDS-polyacrylamide gel. Mouse monoclonal anti-phosphohistone H2AX (about 1:1000) or anti-actin antibody (about 1:1000; as a loading control, LabVision Corp., NeoMarkers, Fremont, Calif.) was used to probe for protein levels as described previously. Bands were detected using a chemiluminescence kit from Roche Applied Biosciences (Indianapolis, Ind.). The bands were visualized using Bio-Rad Chemidoc XRS (Hercules, Calif.) and quantitated using Chemidoc software, Quantity One 4.6.1.

[7] = tested on: rat dorsal root ganglion cells; assay: MTS cell viability assay of dorsal root ganglion cells; format: cell-based
Protocol: APX3330 in combination with chemotherapeutic Cisplatin. […] There was no effect of APX3330 (RN3-3) on the post-mitotic DRG cells, indicative of a non-toxic effect of APX3330 (RN3-3) on non-dividing cells.
DRG cell cultures and treatments were performed similar to previously published procedures using just APX3330 alone (DNA Repair Volume 4, Issue 3, 2 Mar. 2005, pp […]).

[8] = Preliminary in vivo safety in mice (body weight); settings: male mice, under 50 mg/kg

## CCC/C(=C\C1=C(OC)C(=O)c2ccccc2C1=O)C(=O)N(CC)CC [APX2009, [(2E)-2-[(3-methoxy-1,4-dioxo-1,4-dihydronaphthalen-2-yl)methylidene]-N,N-diethylpentanamide]]
[1]
  caspase-3/7 activation: dose-dependent increase in caspase activation

## CCCCCCCCC/C(=C\C1=C(C)C(=O)C(OC)=C(OC)C1=O)C(=O)O [APX3330]
[2]
  inhibition of the redox function of Ape1/Ref-1: selectively inhibited
[3]; Mus musculus, Endothelial cell, 10 μM, basal media
  inhibition at 10 µM: 57%
[3]; Mus musculus, Endothelial cell, 25 μM, basal media
  inhibition at 25 µM: 93%
[3]; about 10-100 μM, with or without bFGF
  retinal endothelial cell proliferation: decreased retinal endothelial cell proliferation
[4]
  individuals with reduced number of SNV in treated eye: 17/20
  reduction of number of SNV: ~30%
[5]
  killing of OVCAR-3 tumor cells: dose dependently killed
[6]
  DNA double stranded breaks (phospho-H2AX), melphalan plus APX3330 compared to melphalan alone: increase in DSBs
[7]; as high as about 120 μM, up to about 72 hours
  survival of dorsal root ganglion cells: did not impair the survival
[7]; with cisplatin
  protection against cisplatin neurotoxicity: provided protection against the neuro-toxic effects of the chemotherapeutic cisplatin
[8]
  mouse toxicity: No mouse toxicity was observed
